Source: ChEMBL document CHEMBL3621191, “Pyrimidine sulfonylacetanilides with improved potency against key mutant viruses of HIV-1 by specific targeting of a highly conserved residue” (Eur J Med Chem, 2015)

Experiments:
[1] = system: Human immunodeficiency virus 1; assay: Antiviral activity against HIV1 3B expressing reverse transcriptase K103N + Y181C mutant infected in human MT4 cells assessed as reduction in virus-induced cytopathogenicity incubated for 4 days by MTT method; format: functional, organism-based; conditions: Human immunodeficiency virus 1, 3B, MT4, 96 h
[2] = system: Human immunodeficiency virus 2; assay: Antiviral activity against HIV2 ROD infected in human MT4 cells assessed as reduction in virus-induced cytopathogenicity incubated for 4 days by MTT method; format: functional, organism-based; conditions: Human immunodeficiency virus 2, ROD, MT4, 96 h
[3] = Cytotoxicity against human MT4 cells assessed as reduction in cell viability incubated for 4 days by MTT assay; format: cell-based
[4] = Selectivity index, ratio of CC50 for human MT4 cells to EC50 for HIV1 3B infected in human MT4 cells; format: toxicity, cell-based; conditions: read-out: Ratio CC50/EC50
[5] = system: Human immunodeficiency virus 1; assay: Antiviral activity against HIV1 expressing reverse transcriptase F227L + V106A mutant; format: functional, organism-based
[6] = molecular target: Human immunodeficiency virus type 1 reverse transcriptase (Human immunodeficiency virus 1, UniProt Q72547); assay: Inhibition of HIV1 reverse transcriptase p66/p51 assessed as inhibition of biotin-dUTP incorporation using poly (rA)/oligo(dT)16 as template/primer incubated for 40 mins
[7] = system: Human immunodeficiency virus 1; assay: Antiviral activity against HIV1 3B infected in human MT4 cells assessed as reduction in virus-induced cytopathogenicity incubated for 4 days by MTT method; format: functional, organism-based; conditions: Human immunodeficiency virus 1, 3B, MT4, 96 h
[8] = system: Human immunodeficiency virus 1; assay: Antiviral activity against HIV1 expressing reverse transcriptase L100I mutant; format: functional, organism-based
[9] = system: Human immunodeficiency virus 1; assay: Antiviral activity against HIV1 expressing reverse transcriptase K103N mutant; format: functional, organism-based
[10] = system: Human immunodeficiency virus 1; assay: Antiviral activity against HIV1 expressing reverse transcriptase E138K mutant; format: functional, organism-based
[11] = system: Human immunodeficiency virus 1; assay: Antiviral activity against HIV1 expressing reverse transcriptase Y181C mutant; format: functional, organism-based
[12] = system: Human immunodeficiency virus 1; assay: Antiviral activity against HIV1 expressing reverse transcriptase Y188L mutant; format: functional, organism-based

| SMILES | EC50 [1] [nM] | EC50 [2] [nM] | CC50 at 96 h [3] [nM] | selectivity ratio [4] | EC50 [5] [nM] | IC50 [6] [nM] | EC50 [7] [nM] | EC50 [8] [nM] | EC50 [9] [nM] | EC50 [10] [nM] | EC50 [11] [nM] | EC50 [12] [nM] |
| --- | --- | --- | --- | --- | --- | --- | --- | --- | --- | --- | --- | --- |
| Cc1cc(C#N)cc(C)c1Oc1ccnc(SCC(=O)Nc2ccc(C#N)cc2)n1 | > 301000 | > 301000 | > 301000 | > 71 |  |  |  |  |  |  |  |  |
| Cc1cc(C#N)cc(C)c1Oc1ccnc(S(=O)(=O)CC(=O)Nc2ccc(F)cc2)n1 | 4360 | > 26100 | 26100 | 2930 | 1480 | 1840 | 8.9 | 749 | 40.9 | 227 | 681 | 3970 |
| Cc1cc(C#N)cc(C)c1Oc1ccnc(S(=O)(=O)CC(=O)Nc2ccccc2Cl)n1 | > 12500 | > 12500 | 12500 | 8.7 |  | 143000 | 1440 |  |  |  |  |  |
| Cc1cc(C#N)cc(C)c1Oc1ccnc(S(=O)(=O)CC(=O)Nc2cccc(Cl)c2)n1 | 7220 | > 25400 | 25400 | 831 |  | 978 | 30.6 |  |  |  |  |  |
| Cc1cc(C#N)cc(C)c1Oc1ccnc(S(=O)(=O)CC(=O)Nc2ccc(Cl)cc2)n1 | 1050 | > 16600 | 16600 | 4740 | 678 | 720 | 3.5 | 190 | 10.1 | 41.6 | 129 | 1420 |
| Cc1cc(C#N)cc(C)c1Oc1ccnc(S(=O)(=O)CC(=O)Nc2ccc(Cl)cc2Cl)n1 | > 10400 | > 10400 | 10400 | 36.5 |  | 15300 | 285 |  |  |  |  |  |
| Cc1cc(C#N)cc(C)c1Oc1ccnc(S(=O)(=O)CC(=O)Nc2ccc(Cl)c(Cl)c2)n1 | 1180 | > 11700 | 11700 | 666 | 3200 | 177 | 17.5 | 468 | 44.8 | 244 | 326 | 1460 |
| Cc1cc(C#N)cc(C)c1Oc1ccnc(S(=O)(=O)CC(=O)Nc2cc(Cl)cc(Cl)c2)n1 | > 24000 | > 24000 | 24000 | 58.9 |  | 918 | 407 |  |  |  |  |  |
| Cc1cc(C#N)cc(C)c1Oc1ccnc(S(=O)(=O)CC(=O)Nc2ccc(Br)cc2)n1 | 957 | > 15600 | 15600 | 5980 | 479 | 728 | 2.6 | 184 | 10 | 39.9 | 116 | 957 |
| Cc1cc(C#N)cc(C)c1Oc1ccnc(S(=O)(=O)CC(=O)Nc2ccc(C#N)cc2)n1 | 425 | ≥ 32200 | ≥ 6010 | ≥ 3540 | 127 | 65 | 1.7 | 67 | 3.4 | 16.5 | 31.3 | 313 |
| Cc1cc(C#N)cc(C)c1Oc1ccnc(S(=O)(=O)CC(=O)Nc2ccc(C#N)cc2F)n1 | > 269000 | > 269000 | > 269000 | > 7810 |  | 296 | 34.4 |  |  |  |  |  |
| Cc1cc(C#N)cc(C)c1Oc1ccnc(S(=O)(=O)CC(=O)Nc2cccc([N+](=O)[O-])c2)n1 | ≥ 7490 | > 23600 | 23600 | 501 |  | 1410 | 47.1 |  |  |  |  |  |
| Cc1cc(C#N)cc(C)c1Oc1ccnc(S(=O)(=O)CC(=O)Nc2ccc([N+](=O)[O-])cc2)n1 | 385 | > 59600 | 59600 | 45800 | 141 | 53 | 1.3 | 111 | 7.3 | 25.7 | 40.6 | 278 |
| Cc1cc(C#N)cc(C)c1Oc1ccnc(S(=O)(=O)CC(=O)Nc2ccccc2)n1 | > 29300 | > 29300 | 29300 | 1120 |  | 15700 | 26 |  |  |  |  |  |
| Cc1cccc(NC(=O)CS(=O)(=O)c2nccc(Oc3c(C)cc(C#N)cc3C)n2)c1 | > 25700 | > 25700 | 25700 | 75 |  | 133000 | 344 |  |  |  |  |  |
| Cc1ccc(NC(=O)CS(=O)(=O)c2nccc(Oc3c(C)cc(C#N)cc3C)n2)cc1 | ≥ 9620 | > 7490 | 7490 | 1060 |  | 766 | 7.1 |  |  |  |  |  |
| Cc1ccc(NC(=O)CS(=O)(=O)c2nccc(Oc3c(C)cc(C#N)cc3C)n2)cc1C | > 13900 | > 13900 | 13900 | 179 |  | 27300 | 77.7 |  |  |  |  |  |
| COc1ccc(NC(=O)CS(=O)(=O)c2nccc(Oc3c(C)cc(C#N)cc3C)n2)cc1 | > 5100 | > 5100 | 5100 | 136 |  | 4660 | 37.6 |  |  |  |  |  |
| Cc1cc(C#N)cc(C)c1Oc1ccnc(S(=O)(=O)CC(=O)Nc2ccccc2F)n1 | > 28400 | > 28400 | 28400 | 176 |  | 24300 | 161 |  |  |  |  |  |
| Cc1cc(C#N)cc(C)c1Oc1ccnc(S(=O)(=O)CC(=O)Nc2cccc(F)c2)n1 | 7150 | > 25900 | 25900 | 1680 |  | 220 | 15.4 |  |  |  |  |  |
| O=C1Nc2ccc(Cl)cc2[C@@](C#CC2CC2)(C(F)(F)F)O1 [EFAVIRENZ] |  |  | > 6340 |  | 228 |  | 6.3 | 95 |  | 5.4 | 8.2 | 348 |
| Cc1cc(C#N)cc(C)c1Oc1nc(Nc2ccc(C#N)cc2)nc(N)c1Br [ETRAVIRINE] |  |  | > 4600 | > 1120 | 14.9 |  |  | 17.7 | 3.2 | 16.8 | 11.5 | 15.9 |
| Cc1ccnc2c1NC(=O)c1cccnc1N2C1CC1 [NEVIRAPINE] | ≥ 7580 |  | > 15000 |  | > 15000 |  |  | 3460 | 9350 | 289 | ≥ 12400 | > 15000 |
